ChEMBL document CHEMBL1145498, “A systematic interaction map of validated kinase inhibitors with Ser/Thr kinases” (Proc Natl Acad Sci U S A, 2007)

Tests used:
[1] = target: 5'-AMP-activated protein kinase catalytic subunit alpha-2 (Homo sapiens) (UniProt P54646)
[2] = target: T1, Calcium/calmodulin-dependent protein kinase type IV (Homo sapiens) (UniProt Q16566)
T1 sequence (whole entry): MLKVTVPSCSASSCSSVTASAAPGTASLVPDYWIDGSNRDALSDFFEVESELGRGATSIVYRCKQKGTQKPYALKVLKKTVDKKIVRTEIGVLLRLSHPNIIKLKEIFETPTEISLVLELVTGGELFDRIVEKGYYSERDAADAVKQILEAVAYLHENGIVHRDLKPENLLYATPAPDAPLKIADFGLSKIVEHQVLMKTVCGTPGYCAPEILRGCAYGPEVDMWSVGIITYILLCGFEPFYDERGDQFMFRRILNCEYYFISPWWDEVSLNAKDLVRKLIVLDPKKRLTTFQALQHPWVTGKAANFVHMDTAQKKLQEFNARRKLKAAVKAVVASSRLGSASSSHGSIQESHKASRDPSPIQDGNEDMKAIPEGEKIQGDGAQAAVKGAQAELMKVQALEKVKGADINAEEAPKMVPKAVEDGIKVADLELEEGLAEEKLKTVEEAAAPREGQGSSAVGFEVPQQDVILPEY

[3] = target: Casein kinase I isoform gamma-3 (Homo sapiens) (UniProt Q9Y6M4)
Sequence of Casein kinase I isoform gamma-3 (Homo sapiens) (Q9Y6M4 whole entry, looked up, canonical isoform): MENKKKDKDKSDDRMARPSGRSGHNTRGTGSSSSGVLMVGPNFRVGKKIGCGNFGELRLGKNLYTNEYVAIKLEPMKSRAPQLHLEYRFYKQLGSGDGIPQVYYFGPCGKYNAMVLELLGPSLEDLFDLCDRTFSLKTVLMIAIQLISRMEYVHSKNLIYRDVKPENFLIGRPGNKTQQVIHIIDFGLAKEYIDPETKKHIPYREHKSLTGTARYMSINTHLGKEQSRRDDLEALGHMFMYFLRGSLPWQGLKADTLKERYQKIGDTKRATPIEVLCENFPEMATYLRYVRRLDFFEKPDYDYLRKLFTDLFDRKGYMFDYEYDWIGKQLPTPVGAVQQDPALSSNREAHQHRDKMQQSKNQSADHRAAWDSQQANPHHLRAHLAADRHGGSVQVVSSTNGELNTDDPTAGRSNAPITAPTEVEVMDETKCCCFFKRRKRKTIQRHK

[4] = target: T2, Dual specificity mitogen-activated protein kinase kinase 6 (Homo sapiens) (UniProt P52564)
T2 sequence (whole entry): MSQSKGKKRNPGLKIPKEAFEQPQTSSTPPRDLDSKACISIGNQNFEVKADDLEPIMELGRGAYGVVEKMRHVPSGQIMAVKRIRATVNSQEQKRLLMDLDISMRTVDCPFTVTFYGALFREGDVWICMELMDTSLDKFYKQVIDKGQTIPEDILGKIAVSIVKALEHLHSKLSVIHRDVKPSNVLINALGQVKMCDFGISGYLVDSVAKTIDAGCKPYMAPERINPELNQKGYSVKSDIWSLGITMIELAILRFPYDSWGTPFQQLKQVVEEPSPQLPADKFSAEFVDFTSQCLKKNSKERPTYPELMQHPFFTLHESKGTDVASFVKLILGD

[5] = target: Mitogen-activated protein kinase 6 (Homo sapiens) (UniProt Q16659)
Sequence of Mitogen-activated protein kinase 6 (Homo sapiens) (Q16659 whole entry): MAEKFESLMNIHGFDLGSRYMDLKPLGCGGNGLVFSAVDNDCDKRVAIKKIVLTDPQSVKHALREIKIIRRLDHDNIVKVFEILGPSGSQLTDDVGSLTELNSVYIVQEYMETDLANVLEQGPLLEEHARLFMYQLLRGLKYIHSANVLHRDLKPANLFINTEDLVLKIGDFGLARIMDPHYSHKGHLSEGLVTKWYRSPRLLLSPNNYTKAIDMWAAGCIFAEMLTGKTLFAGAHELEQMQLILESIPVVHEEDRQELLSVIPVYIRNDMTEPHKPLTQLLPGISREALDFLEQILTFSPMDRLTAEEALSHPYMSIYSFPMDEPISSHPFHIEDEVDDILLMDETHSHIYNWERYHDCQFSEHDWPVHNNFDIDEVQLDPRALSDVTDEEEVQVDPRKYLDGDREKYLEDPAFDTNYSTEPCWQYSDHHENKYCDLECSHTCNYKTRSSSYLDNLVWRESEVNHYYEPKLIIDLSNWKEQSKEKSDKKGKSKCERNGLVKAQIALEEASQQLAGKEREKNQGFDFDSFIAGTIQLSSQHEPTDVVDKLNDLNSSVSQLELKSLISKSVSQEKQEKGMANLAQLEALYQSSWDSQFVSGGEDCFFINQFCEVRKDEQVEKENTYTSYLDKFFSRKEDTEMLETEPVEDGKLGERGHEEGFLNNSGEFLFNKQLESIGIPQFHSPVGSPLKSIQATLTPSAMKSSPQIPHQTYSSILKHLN

[6] = target: Serine/threonine-protein kinase PAK 4 (Homo sapiens) (UniProt O96013)
[7] = target: Serine/threonine-protein kinase PAK 5 (Homo sapiens) (UniProt Q9P286)
Sequence of Serine/threonine-protein kinase PAK 5 (Homo sapiens) (Q9P286 whole entry, looked up): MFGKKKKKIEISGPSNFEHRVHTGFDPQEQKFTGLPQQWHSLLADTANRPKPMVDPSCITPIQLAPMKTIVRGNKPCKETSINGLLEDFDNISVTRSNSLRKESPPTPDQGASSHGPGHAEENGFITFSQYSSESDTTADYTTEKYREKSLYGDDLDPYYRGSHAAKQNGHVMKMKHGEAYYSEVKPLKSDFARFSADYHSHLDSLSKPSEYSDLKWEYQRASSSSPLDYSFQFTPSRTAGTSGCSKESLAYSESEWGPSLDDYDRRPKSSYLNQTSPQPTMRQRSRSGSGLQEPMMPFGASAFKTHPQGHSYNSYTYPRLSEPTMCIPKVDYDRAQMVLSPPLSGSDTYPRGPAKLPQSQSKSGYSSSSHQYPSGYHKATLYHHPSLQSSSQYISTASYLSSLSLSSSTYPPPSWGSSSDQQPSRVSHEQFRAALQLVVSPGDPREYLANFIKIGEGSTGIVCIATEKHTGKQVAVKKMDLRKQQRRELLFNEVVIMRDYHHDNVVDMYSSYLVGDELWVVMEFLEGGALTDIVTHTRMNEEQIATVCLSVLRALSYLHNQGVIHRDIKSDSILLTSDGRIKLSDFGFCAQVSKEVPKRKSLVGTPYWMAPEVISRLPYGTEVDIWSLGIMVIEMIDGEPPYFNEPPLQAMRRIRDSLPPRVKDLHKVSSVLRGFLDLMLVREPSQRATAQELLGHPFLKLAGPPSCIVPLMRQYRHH

[8] = target: Cyclin-dependent kinase 16 (Homo sapiens) (UniProt Q00536)
[9] = target: T3, 3-phosphoinositide-dependent protein kinase 1 (Homo sapiens) (UniProt O15530)
T3 sequence (whole entry): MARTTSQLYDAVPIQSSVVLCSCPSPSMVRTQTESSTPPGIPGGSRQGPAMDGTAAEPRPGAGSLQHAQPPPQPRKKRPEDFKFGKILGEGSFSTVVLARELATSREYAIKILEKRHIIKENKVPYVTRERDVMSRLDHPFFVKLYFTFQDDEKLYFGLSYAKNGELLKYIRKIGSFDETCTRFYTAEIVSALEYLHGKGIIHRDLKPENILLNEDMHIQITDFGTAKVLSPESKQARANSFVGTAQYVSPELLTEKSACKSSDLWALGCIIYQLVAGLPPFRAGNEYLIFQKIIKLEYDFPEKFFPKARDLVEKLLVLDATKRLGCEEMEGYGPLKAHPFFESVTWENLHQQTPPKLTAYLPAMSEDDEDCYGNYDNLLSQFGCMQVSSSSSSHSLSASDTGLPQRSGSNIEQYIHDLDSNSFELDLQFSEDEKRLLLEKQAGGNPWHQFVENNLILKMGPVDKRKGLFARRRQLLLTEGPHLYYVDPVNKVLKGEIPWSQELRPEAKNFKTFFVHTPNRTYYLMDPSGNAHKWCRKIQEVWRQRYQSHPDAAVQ

[10] = target: Serine/threonine-protein kinase RIO2 (Homo sapiens) (UniProt Q9BVS4)
Sequence of Serine/threonine-protein kinase RIO2 (Homo sapiens) (Q9BVS4 whole entry, looked up): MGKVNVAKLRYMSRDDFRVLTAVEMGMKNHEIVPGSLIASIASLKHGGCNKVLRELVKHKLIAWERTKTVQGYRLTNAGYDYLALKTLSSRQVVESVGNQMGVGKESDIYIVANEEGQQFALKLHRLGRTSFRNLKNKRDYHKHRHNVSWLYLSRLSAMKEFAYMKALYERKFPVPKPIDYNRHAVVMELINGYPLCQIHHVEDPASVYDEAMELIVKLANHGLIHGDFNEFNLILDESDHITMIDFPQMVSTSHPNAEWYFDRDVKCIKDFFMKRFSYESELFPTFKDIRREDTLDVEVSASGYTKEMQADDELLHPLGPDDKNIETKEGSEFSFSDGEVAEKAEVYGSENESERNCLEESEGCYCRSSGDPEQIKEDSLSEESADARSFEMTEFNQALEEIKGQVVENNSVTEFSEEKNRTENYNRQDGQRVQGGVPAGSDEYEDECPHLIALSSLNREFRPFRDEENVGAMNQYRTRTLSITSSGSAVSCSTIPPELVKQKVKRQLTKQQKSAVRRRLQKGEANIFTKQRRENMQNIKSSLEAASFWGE

[11] = target: Serine/threonine-protein kinase 16 (Homo sapiens) (UniProt O75716)
Sequence of Serine/threonine-protein kinase 16 (Homo sapiens) (O75716 whole entry): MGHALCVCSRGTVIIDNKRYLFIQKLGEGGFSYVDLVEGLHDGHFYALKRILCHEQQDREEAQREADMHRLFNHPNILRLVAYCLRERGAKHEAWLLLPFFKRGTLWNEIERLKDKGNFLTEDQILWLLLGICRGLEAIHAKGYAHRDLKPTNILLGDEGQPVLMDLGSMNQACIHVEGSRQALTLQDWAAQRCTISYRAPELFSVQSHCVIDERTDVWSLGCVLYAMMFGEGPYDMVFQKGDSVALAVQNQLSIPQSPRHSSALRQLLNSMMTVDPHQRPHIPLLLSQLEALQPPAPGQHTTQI

[12] = target: T4, Serine/threonine-protein kinase 17A (Homo sapiens) (UniProt Q9UEE5)
T4 sequence (whole entry): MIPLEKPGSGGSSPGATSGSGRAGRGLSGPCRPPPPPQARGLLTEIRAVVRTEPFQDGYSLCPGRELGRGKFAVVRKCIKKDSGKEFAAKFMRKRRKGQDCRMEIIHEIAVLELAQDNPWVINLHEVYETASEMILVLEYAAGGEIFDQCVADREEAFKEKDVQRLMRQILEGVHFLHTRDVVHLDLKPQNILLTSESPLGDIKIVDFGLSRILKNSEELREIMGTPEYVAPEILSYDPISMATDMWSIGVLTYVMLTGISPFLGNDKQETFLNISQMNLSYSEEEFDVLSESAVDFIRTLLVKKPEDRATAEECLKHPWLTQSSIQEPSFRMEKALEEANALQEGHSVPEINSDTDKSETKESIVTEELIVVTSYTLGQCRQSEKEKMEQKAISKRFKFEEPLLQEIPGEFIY

[13] = target: Serine/threonine-protein kinase 38 (Homo sapiens) (UniProt Q15208)
Sequence of Serine/threonine-protein kinase 38 (Homo sapiens) (Q15208 2-465 limits assumed): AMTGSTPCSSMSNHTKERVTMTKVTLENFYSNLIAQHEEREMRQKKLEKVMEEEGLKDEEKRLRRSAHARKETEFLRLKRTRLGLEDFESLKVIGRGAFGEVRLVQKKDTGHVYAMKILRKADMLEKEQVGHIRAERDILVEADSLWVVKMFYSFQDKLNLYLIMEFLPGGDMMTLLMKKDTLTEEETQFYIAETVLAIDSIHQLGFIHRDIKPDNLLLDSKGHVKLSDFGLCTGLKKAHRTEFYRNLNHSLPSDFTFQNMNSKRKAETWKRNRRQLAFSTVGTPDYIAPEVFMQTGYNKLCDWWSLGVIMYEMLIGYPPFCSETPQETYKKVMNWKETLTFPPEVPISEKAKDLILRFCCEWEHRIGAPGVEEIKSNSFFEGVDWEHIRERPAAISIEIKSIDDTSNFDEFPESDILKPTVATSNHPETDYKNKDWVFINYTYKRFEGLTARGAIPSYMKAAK

[14] = target: Serine/threonine-protein kinase VRK2 (Homo sapiens) (UniProt Q86Y07)
Sequence of Serine/threonine-protein kinase VRK2 (Homo sapiens) (Q86Y07 whole entry): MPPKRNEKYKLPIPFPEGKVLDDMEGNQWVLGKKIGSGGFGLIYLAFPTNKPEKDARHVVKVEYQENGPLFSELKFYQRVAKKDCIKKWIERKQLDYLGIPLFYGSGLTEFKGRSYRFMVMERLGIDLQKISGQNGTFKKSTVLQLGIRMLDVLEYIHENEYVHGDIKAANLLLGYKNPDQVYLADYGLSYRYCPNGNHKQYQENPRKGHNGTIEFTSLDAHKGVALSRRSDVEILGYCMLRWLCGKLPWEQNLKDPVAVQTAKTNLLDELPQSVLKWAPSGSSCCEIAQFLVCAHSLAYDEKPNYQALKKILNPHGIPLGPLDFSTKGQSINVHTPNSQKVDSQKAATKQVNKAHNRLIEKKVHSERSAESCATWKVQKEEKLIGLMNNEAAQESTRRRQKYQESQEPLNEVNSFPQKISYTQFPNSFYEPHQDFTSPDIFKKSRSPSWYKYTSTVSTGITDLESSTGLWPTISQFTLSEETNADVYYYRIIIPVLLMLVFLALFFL

[15] = target: Calcium/calmodulin-dependent protein kinase type II subunit beta (Homo sapiens) (UniProt Q13554)
[16] = target: Ribosomal protein S6 kinase alpha-3 (Homo sapiens) (UniProt P51812)
Sequence of Ribosomal protein S6 kinase alpha-3 (Homo sapiens) (P51812 whole entry): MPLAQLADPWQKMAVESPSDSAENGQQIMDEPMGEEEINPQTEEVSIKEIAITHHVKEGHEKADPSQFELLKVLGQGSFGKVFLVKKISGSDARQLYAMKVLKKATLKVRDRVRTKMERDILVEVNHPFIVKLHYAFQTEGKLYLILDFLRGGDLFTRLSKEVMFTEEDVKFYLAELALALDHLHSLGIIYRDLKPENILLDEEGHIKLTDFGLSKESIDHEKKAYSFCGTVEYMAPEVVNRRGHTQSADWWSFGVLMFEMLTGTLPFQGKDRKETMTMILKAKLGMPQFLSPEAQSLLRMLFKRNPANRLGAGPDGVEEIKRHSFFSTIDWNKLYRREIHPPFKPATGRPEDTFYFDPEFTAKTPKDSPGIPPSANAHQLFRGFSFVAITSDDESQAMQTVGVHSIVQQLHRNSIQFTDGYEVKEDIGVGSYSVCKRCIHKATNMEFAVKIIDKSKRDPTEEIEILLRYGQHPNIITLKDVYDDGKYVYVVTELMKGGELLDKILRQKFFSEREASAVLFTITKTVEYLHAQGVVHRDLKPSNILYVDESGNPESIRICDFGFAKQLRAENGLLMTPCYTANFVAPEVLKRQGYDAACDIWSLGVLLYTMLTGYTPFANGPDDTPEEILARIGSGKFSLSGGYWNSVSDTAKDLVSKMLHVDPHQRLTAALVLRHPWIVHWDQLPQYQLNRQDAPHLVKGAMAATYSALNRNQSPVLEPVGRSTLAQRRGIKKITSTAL

Sequence of 5'-AMP-activated protein kinase catalytic subunit alpha-2 (Homo sapiens) (P54646 whole entry, looked up): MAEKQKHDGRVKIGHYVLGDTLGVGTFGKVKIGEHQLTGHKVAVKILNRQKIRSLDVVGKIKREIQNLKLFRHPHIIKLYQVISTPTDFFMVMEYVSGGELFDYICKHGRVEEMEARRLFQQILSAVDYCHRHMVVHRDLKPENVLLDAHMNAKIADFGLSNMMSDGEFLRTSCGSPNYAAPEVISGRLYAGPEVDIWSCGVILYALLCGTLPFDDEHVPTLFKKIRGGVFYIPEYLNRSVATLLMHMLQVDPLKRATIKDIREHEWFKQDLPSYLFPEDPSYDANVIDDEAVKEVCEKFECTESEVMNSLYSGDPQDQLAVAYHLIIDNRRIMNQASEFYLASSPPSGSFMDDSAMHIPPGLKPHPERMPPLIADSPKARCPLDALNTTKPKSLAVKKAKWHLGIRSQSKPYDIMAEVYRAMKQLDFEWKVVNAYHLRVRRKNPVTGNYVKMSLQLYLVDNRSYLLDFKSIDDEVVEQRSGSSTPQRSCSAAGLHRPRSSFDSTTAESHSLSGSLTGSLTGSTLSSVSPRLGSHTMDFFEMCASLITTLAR

SMILES	ΔTm [1] [°C]	ΔTm [2] [°C]	ΔTm [3] [°C]	ΔTm [4] [°C]	ΔTm [5] [°C]	ΔTm [6] [°C]	ΔTm [7] [°C]	ΔTm [8] [°C]	ΔTm [9] [°C]	ΔTm [10] [°C]	ΔTm [11] [°C]	ΔTm [12] [°C]	ΔTm [13] [°C]	ΔTm [14] [°C]	ΔTm [15] [°C]	ΔTm [16] [°C]
COc1ccc2c(c1)/C(=C/c1cnc[nH]1)C(=O)N2 [SU-9516]	4.1	1.5	0.5	5.1	0.2	1.8	1.2	3.3	0.2	1.3	4.4	9.8	3.4	0.7	–	–
Cn1cnc2c(NCc3ccccc3)nc(NCCO)nc21 [OLOMOUCINE]	0.2	0.1	0	0	0.2	0.4	-0.1	-0.6	0	0.3	0.7	-0.1	0	0.2	0.2	0.1
Cc1cc(C=C2C(=O)C=CC2=O)cc(C)c1O	-2.2	-0.1	-0.1	7.9	-1.6	0.7	0.1	2.2	-0.4	0.7	3.2	-4.6	0.2	0.2	-0.1	1.8
CSc1nc(-c2ccc(F)cc2)c(-c2ccnc(NC(C)c3ccccc3)c2)[nH]1 (racemic)	-0.4	-0.3	3.4	0.5	0.4	0.2	0	0.4	-0.9	0	-0.1	0.1	0.3	0.2	0	0.4
COc1ccc(S(=O)(=O)N(CCO)c2ccccc2CN(C)C/C=C/c2ccc(Cl)cc2)cc1	-1	-0.3	0	0.4	-0.5	-0.1	-0.4	-0.6	0.4	-0.4	0.5	0.1	-0.2	-0.3	-1.6	-0.9
O=S(=O)(c1cccc2c(Cl)cccc12)N1CCCNCC1	-0.4	0	0.1	0	0	0.8	0.1	-0.4	0.1	0.3	1.1	0.7	0.3	0	0.3	0.5
CC(C)n1cnc2/c(=N/c3cccc(Cl)c3)nc(NCCO)[nH]c21	0.3	1.2	7	0.3	0.2	2.9	1.6	0.1	0	1	2.6	1.4	2.7	2.5	0.4	4.6
Oc1cc(O)cc(/C=C/c2ccc(O)c(O)c2)c1 [PICEATANNOL]	0.2	0.2	0.5	0.1	0.9	1.5	-0.9	0	-0.4	0.6	4.4	0.3	1.7	-0.4	-0.2	–
COc1nccc(-c2c(-c3ccc(F)cc3)ncn2[C@H]2CC[C@H](O)CC2)n1	0.7	0.2	1.2	0	0.8	0.7	0.1	0.6	0	0	-0.2	0	0.4	0.8	–	0.6
O=C1Cc2c([nH]c3ccc(Br)cc23)-c2ccccc2N1 [KENPAULLONE]	1.1	0.3	0.4	0.4	0.9	3.4	3.5	2	-0.8	1.8	0.7	5.9	1.1	0.2	0.5	–
CCN1/C(=C/C(C)=O)Sc2ccc(OC)cc21	-0.1	0.8	–	0.3	0	0.9	0	-0.5	0.2	-0.2	1.7	0.4	0.5	0.4	0.3	0.4
O=C1Nc2ccccc2/C1=C\c1ccc[nH]1	3.2	0.6	1.8	3.4	-0.1	1.2	0.7	1.7	0.9	3	4.3	11	2.7	3.4	0.6	–
CN(C)C[C@@H]1CCn2cc(c3ccccc32)C2=C(C(=O)NC2=O)c2cn(c3ccccc23)CCO1 [RUBOXISTAURIN]	1.3	2.9	0.5	0.5	0.1	–	0.9	–	0.2	1.8	0.8	-0.2	0	1	0.5	8.1
CC[C@H](CO)Nc1nc(NCc2ccccc2)c2ncn(C(C)C)c2n1 [SELICICLIB]	0.4	0.2	–	0.2	-0.4	1.7	0.6	–	0.2	0	–	-0.5	0.3	2.1	0.3	1.1
